These results are taken from publication PMC5706701, “Development of a homogenous high-throughput assay for inositol hexakisphosphate kinase 1 activity” (PLoS ONE, 2017).

Structures can show the parent of a compound that is named as a salt. Where two headings read alike, the source gives them in different places.

This assay concerns the target T1, Human IP6K1 (Homo sapiens, UniProt Q92551).
T1 construct: GST (N, cleaved yes); made in house; host or cells: C43 E. coli, pGEX-6P-2
Put plainly: IP6K1 high-throughput screen of the Sigma LOPAC (ADP-Glo Max, single point).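 Note: final compound concentration 10µM in 5% DMSO.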 Format: biochemical. For orientation: In ADP-Glo the light output rises with the ADP produced.

Where [1] appears, read: LOPAC single-point screen, ADP-Glo Max luminescence raw signal per well.
Where [2] appears, read: LOPAC single-point screen, Z-score from plate average and StDev.
The mark [3] stands for this setting: LOPAC single-point screen, Z-score relative to plate average and StDev.
[4] abbreviates: Sigma LOPAC single-point screen, ADP-Glo Max raw signal per well.
Where [5] appears, read: Sigma LOPAC single-point screen, Z-score from plate average and StDev.
Where [6] appears, read: LOPAC single-point screen, ADP-Glo Max raw signal per well.
The mark [7] stands for this setting: LOPAC single-point screen, Z-score from raw signal with plate average and StDev.
[8] abbreviates: LOPAC single-point screen, Z-score against plate average and StDev.

T1 sequence (Q92551 whole entry): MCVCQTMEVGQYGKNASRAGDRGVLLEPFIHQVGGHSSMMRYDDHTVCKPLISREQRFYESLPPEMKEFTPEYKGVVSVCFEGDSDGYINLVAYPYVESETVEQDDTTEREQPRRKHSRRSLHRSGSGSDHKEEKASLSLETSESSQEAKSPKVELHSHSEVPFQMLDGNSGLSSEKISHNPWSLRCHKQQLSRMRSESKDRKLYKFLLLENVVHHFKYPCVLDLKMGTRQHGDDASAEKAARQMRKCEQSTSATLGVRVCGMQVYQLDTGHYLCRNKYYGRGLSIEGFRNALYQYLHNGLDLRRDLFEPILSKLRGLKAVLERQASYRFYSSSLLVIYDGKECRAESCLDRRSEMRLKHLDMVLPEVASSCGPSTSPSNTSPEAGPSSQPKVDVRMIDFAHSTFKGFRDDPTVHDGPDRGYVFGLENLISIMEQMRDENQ

Take `COc1ccc(CCN(C)CCCC(C#N)(c2ccc(OC)c(OC)c2)C(C)C)cc1OC.Cl` (racemic) [(±)-Verapamil hydrochloride]: the “Raw Signal” value under setting [1] is 63315. The compound also yielded a Z-score under setting [2] of 1.417.
For `Cl.OC1CCCCC1N1CCC(c2ccccc2)CC1` (racemic) [(±)-Vesamicol hydrochloride], the “Raw Signal” value under setting [1] is recorded as 53363. The Z-score under setting [3] was -0.5169.
On to `O=C(O)CCCCC1CCSS1` (racemic) [(±)-alpha-Lipoic Acid], for which the “Raw Signal” value under setting [4] was 59328. Further, the Z-score under setting [5] was found to be 0.6419.
`CC(N)(C(=O)O)c1ccc(C(=O)O)cc1` (racemic) [(±)-alpha-Methyl-4-carboxyphenylglycine]: the “Raw Signal” value under setting [6] turned out to be 51961. For the same compound, the Z-score under setting [7] was -0.4087.
In the case of `C=CC(N)CCC(=O)O` (racemic) [(±)-gamma-Vinyl GABA], the “Raw Signal” value under setting [1] was determined as 68019. Besides, the Z-score under setting [2] is reported as 2.33.
Take `CCC1(c2ccc(N)cc2)CCC(=O)NC1=O` (racemic) [(±)-p-Aminoglutethimide]: the “Raw Signal” value under setting [6] is 58613. The Z-score under setting [8] is on record as 0.1233.
As to `NC(Cc1ccc(Cl)cc1)C(=O)O` (racemic) [(±)-p-Chlorophenylalanine], the “Raw Signal” value under setting [1] came out at 55203. This compound returned a Z-score under setting [3] of -0.4773.
On the same counts, the results for `CC(C)C1C2CCC(C2)C1N.Cl` (racemic) [AGN 192403 hydrochloride] are 53820 and -0.7209.
With `CCCCS(=N)(=O)CCC(N)C(=O)O` (racemic) [DL-Buthionine-[S,R]-sulfoximine], the “Raw Signal” value under setting [1] was found to be 66724. The Z-score under setting [2] amounted to 1.552.
As to `N[C@@H]1CONC1=O` (racemic) [DL-Cycloserine], the “Raw Signal” value under setting [6] was found to be 55454. The compound further gave a Z-score under setting [7] of -0.4331.
On the same counts, the results for `CCCCCCCCCCCCCCCCCC(=O)OC(CC(=O)O)C[N+](C)(C)C.[Cl-]` (racemic) [DL-Stearoylcarnitine chloride] are 55265 and -0.1474.
On the same counts, the results for `O=C(O)CNC(=O)C(CS)Cc1ccccc1` (racemic) [DL-Thiorphan] are 55327 and -0.1354.
Regarding `CC(N)(Cc1ccc(O)cc1)C(=O)O` (racemic) [DL-alpha-Methyl-p-tyrosine], the “Raw Signal” value under setting [1] is reported as 72995. Besides, the Z-score under setting [2] turned out to be 2.656.
`CCCCCCCCCCCCCCC[C@H](O)[C@H](N)CO` (racemic) [DL-erythro-Dihydrosphingosine]: the “Raw Signal” value under setting [6] was found to be 54857. Besides, under setting [8], the Z-score is recorded as -0.06296.
For `NC(C(=O)O)C(O)C(=O)O` (racemic) [DL-threo-beta-hydroxyaspartic acid], the “Raw Signal” value under setting [1] is on record as 64938. In addition, the Z-score under setting [2] stood at 1.984.
`Oc1cc2c(cc1O)[C@H]1c3ccccc3CN[C@@H]1CC2` (racemic) [Dihydrexidine hydrochloride]: under setting [6], the “Raw Signal” value is reported as 53851. In addition, the Z-score under setting [7] is given as -0.2673.
Take `CCCCCCCCCCCCCCCC(=O)OC(CC(=O)O)C[N+](C)(C)C.[Cl-]` (racemic) [Palmitoyl-DL-Carnitine chloride]: the “Raw Signal” value under setting [6] is listed as 51772. Also, the Z-score under setting [7] is -0.4405.
For the compound `CCN1CCC[C@H]1CNC(=O)c1c(O)c(Cl)cc(Cl)c1OC.O=C(O)C(O)C(O)C(=O)O` (racemic) [S(+)-Raclopride L-tartrate], under setting [4], the “Raw Signal” value was determined as 59305. The compound also registered a Z-score under setting [5] of 0.6375.
As to `Br.CCCN1CCC2c3cc(O)ccc3CCC21` (racemic) [cis-(±)-8-OH-PBZI hydrobromide], the “Raw Signal” value under setting [6] came out at 53901. Further, the Z-score under setting [8] is -0.08275.
Consider `N[C@]1(C(=O)O)CC[C@H](C(=O)O)C1` (racemic) [trans-(±)-ACPD], for which the “Raw Signal” value under setting [6] is 56973. For the same compound, under setting [7], the Z-score is recorded as -0.1656.
For the compound `O=C(O)[C@H]1C[C@H](C(=O)O)N1` (relative stereo) [trans-Azetidine-2,4-dicarboxylic acid], the “Raw Signal” value under setting [6] was 57895. In addition, the Z-score under setting [8] is on record as -0.003188.
Consider `COc1ccc2c(c1OC)C(=O)OC2C1c2cc3c(cc2CCN1C)OCO3` (single isomer, unassigned; (+)) [(+)-Hydrastine], for which the “Raw Signal” value under setting [6] worked out at 55977. This compound returned a Z-score under setting [8] of 0.1645.
`CC12NC(Cc3ccccc31)c1ccccc12.O=C(O)/C=C\C(=O)O` (single isomer, unassigned; (+)) [(+)-MK-801 hydrogen maleate]: the “Raw Signal” value under setting [4] was 58157. The Z-score under setting [5] is listed as 0.6324.
Take `CC(C)NCC(O)c1ccc(O)c(O)c1.Cl` (single isomer, unassigned; (-)) [(-)-Isoproterenol hydrochloride]: under setting [1], the “Raw Signal” value was determined as 50939. Besides, the Z-score under setting [3] is listed as -0.5804.
Take `CN1CCCC1c1cccnc1.O=C(O)C(O)C(O)C(=O)O` (single isomer, unassigned; (-)) [(-)-Nicotine hydrogen tartrate salt]: the “Raw Signal” value came out at 64466 and the Z-score amounted to 1.692.
As for `C[N+]1(C)[C@@H]2CC(OC(=O)[C@H](CO)c3ccccc3)C[C@H]1[C@@H]1O[C@@H]12.O=[N+]([O-])[O-]` (single isomer, unassigned; (-)) [(-)-Scopolamine methyl nitrate], the “Raw Signal” value under setting [6] turned out to be 57036. In addition, the Z-score under setting [8] was determined as 0.1966.
For `CC(N)C(O)c1ccc(O)c(O)c1` (single isomer, unassigned; (-)) [(-)-alpha-Methylnorepinephrine], the “Raw Signal” value under setting [1] turned out to be 45337. This compound also gave a Z-score under setting [3] of -1.996.
`Nc1nc(Cl)nc2c1ncn2[C@@H]1O[C@H](COP(=O)(O)OP(=O)(O)OP(=O)(O)O)C(O)C1O` (stereo in doubt): the “Raw Signal” value under setting [1] came to 49196. Under setting [3], the Z-score was -1.213.
Taken in the same sequence, the figures for `Nc1ncnc2c1nc(Sc1ccc(Cl)cc1)n2C1OC2COP(=O)(O)OC2C1O` (stereo in doubt) [8-(4-Chlorophenylthio)-cAMP sodium] were 54805 and -0.5474.
On to `CCCCC1(C2CCCC2)Cc2cc(OCC(=O)O)c(Cl)c(Cl)c2C1=O` (stereo in doubt) [R(+)-Butylindazone], for which the “Raw Signal” value under setting [6] is 53463. For the same compound, the Z-score under setting [7] was -0.3461.
On the same counts, the results for `CCn1c(=O)c2nc(-c3ccccc3)[nH]c2n(CC)c1=O` [1,3-Diethyl-8-phenylxanthine] are 56931 and -0.173.
In the case of `Cn1c(=O)c2[nH]c(-c3ccccc3)nc2n(C)c1=O` [1,3-Dimethyl-8-phenylxanthine], under setting [6], the “Raw Signal” value turned out to be 54517. For the same compound, the Z-score under setting [8] is 0.02075.
Consider `CCCn1c(=O)c2c(ncn2C)n(CCC)c1=O` [1,3-Dipropyl-7-methylxanthine], for which the “Raw Signal” value under setting [4] was 58298. For the same compound, the Z-score under setting [5] was 0.6359.
For the compound `CCCn1c(=O)c2[nH]c(-c3ccc(S(=O)(=O)O)cc3)nc2n(CCC)c1=O` [1,3-Dipropyl-8-p-sulfophenylxanthine], under setting [1], the “Raw Signal” value was determined as 54862. Moreover, the Z-score under setting [3] was -0.5374.
With `Br.Br.N=C(N)SCCc1cccc(CCSC(=N)N)c1` [1,3-PBIT dihydrobromide], the “Raw Signal” value under setting [4] is listed as 61855. Also, under setting [5], the Z-score came to 1.133.
As for `OC[C@H]1NC[C@@H](O)[C@@H]1O` [1,4-Dideoxy-1,4-imino-D-arabinitol], under setting [6], the “Raw Signal” value was determined as 54688. Further, the Z-score under setting [7] is -0.09729.
For `Br.Br.N=C(N)SCCc1ccc(CCSC(=N)N)cc1` [1,4-PBIT dihydrobromide], the “Raw Signal” value under setting [1] is 52088. The Z-score under setting [3] is -0.7647.
As for `Oc1cccc2c(O)nccc12` [1,5-Isoquinolinediol], the “Raw Signal” value under setting [6] is listed as 54537. Moreover, under setting [8], the Z-score was 0.02411.
For `Cn1c(=O)[nH]c2ncn(C)c2c1=O` [1,7-Dimethylxanthine], the “Raw Signal” value under setting [6] is 53863. Under setting [7], this compound gave a Z-score of -0.2648.
`NCCCCCCCCCCN` [1,10-Diaminodecane]: the Z-score under setting [7] is recorded as -0.1121.
Turning to `O.c1cnc2c(c1)ccc1cccnc12` [1,10-Phenanthroline monohydrate], the “Raw Signal” value under setting [1] was found to be 52659. The compound also came in with a Z-score under setting [3] of -0.6537.
Consider `Cl.c1ccc2c(N3CCNCC3)cccc2c1` [1-(1-Naphthyl)piperazine hydrochloride], for which, under setting [6], the “Raw Signal” value is recorded as 55645. This compound came in with a Z-score under setting [8] of -0.07359.
As to `Oc1ccc(Cn2cc[nH]c2=S)cc1` [1-(4-Hydroxybenzyl)imidazole-2-thiol], the “Raw Signal” value under setting [1] came to 52381. Under setting [3], this compound registered a Z-score of -0.5658.
On the same counts, the results for `Nn1nnc2ccccc21` [1-Aminobenzotriazole] are 53212 and -0.828.
For `OC[C@H]1NC[C@H](O)[C@@H](O)[C@@H]1O` [1-Deoxynojirimycin hydrochloride], under setting [4], the “Raw Signal” value is reported as 59013. In addition, the Z-score under setting [5] is reported as 0.7811.
`Cl.Cl.Cn1cnc(CCN)c1` [1-Methylhistamine dihydrochloride]: the “Raw Signal” value under setting [6] is on record as 52776. The Z-score under setting [7] is reported as -0.2718.
As to `Cn1ccnc1` [1-Methylimidazole], under setting [4], the “Raw Signal” value was 56921. Under setting [5], the Z-score was 0.4247.
In the case of `S=C(Nc1ccccc1)Nc1nccs1` [1-Phenyl-3-(2-thiazolyl)-2-thiourea], the “Raw Signal” value under setting [6] stood at 53752. Under setting [7], this compound yielded a Z-score of -0.1078.
For the compound `N=C(N)NC(=N)Nc1ccccc1` [1-Phenylbiguanide], under setting [1], the “Raw Signal” value is on record as 52325. In addition, the Z-score under setting [3] is -0.7186.
For `FC(F)(F)c1ccccc1-n1ccnc1` [1-[2-(Trifluoromethyl)phenyl]imidazole], under setting [4], the “Raw Signal” value is 60208. Under setting [5], this compound yielded a Z-score of 0.8129.
